Measured values reported in article PMC12042267, “Expanding the Family of Monosubstituted 15-Membered Pyridine-Based Macrocyclic Ligands for Mn(II) Complexation in the Context of MRI” (Inorganic Chemistry, 2025).

Columns and labels:
[1] = Water solubility of complex samples; assay type: physicochemical; conditions: at the concentrations required for the measurements
Excerpt: MnL2 and MnL3 complex samples for kinetic and relaxometric studies have been prepared by mixing MnCl2 and L2 or L3 solutions of known concentrations in a 1:1.05 ratio and by adjusting the pH to 7.4. Mn(II) concentration in each sample was verified by bulk magnetic susceptibility measurements.

[2] = Simultaneous analysis of 17O NMR and 1H NMRD data (Solomon-Bloembergen-Morgan); assay type: physicochemical
Protocol: ^1H NMRD profiles on aqueous solutions of MnL2 (cMn2+ = 0.98 mM; pH = 7.22) and MnL3 (cMn2+ = 0.96 mM; pH = 7.20) were recorded at 25 and 37 °C on a SMARTracer Fast Field Cycling NMR relaxometer (Stelar; 0.00024–0.24 T, 0.01–10 MHz ^1H Larmor frequency) and a WP80 NMR electromagnet adapted to variable-field measurements (Bruker; 0.47–1.88 T, 20–80 MHz ^1H Larmor frequency). The temperature was maintained by a gas flow and monitored by a VTC91 temperature control unit based on previous calibration with a Pt resistance temperature probe.
Variable-temperature ^17O NMR measurements of aqueous solutions of MnL2 (cMnL = 3.70 mmol·kg^–1, pH = 7.03) and MnL3 (cMnL = 3.72 mmol·kg^–1, pH = 7.2) were performed on a Bruker Avance III 400 MHz spectrometer (9.4 T, 54.2 MHz) in the temperature range 5–75 °C. The temperature was calculated after calibration with ethylene glycol and […]. Acidified water (HClO4, pH = 3.3) was used as a diamagnetic reference. The ^17O transverse relaxation times (T2) were obtained by using the CPMG spin–echo technique. To eliminate susceptibility contributions to the chemical shift, the sample was in a glass sphere placed in a 10 mm NMR tube. To improve the sensitivity, ^17O-enriched water (11.10% H2^17O, Cortecnet) was added to the solution to yield approximately 1% ^17O enrichment.
The ^17O NMR and NMRD data have been analyzed according to the Solomon–Bloembergen–Morgan theory of paramagnetic relaxation.[3] The least-squares fit was performed using Visualizeur/Optimiseur running on a MATLAB 8.3.0 (R2014a) platform.
^1H NMRD profiles were recorded at 25 and 37 °C in the magnetic field range 0.01–80 MHz (Figure 6, bottom). The reduced transverse ^17O relaxation rates were simultaneously fitted with ^1H NMRD data according to the Solomon–Bloembergen–Morgan theory (equations are given in SI). The fitted parameters are summarized in Table 6 and compared to those for seven-coordinate Mn(II) complexes of L1 and 15-pyN3O2 ligands, as well as of [Mn(H2O)6]^2+.
The shape of the ^1H NMRD curves reflects typical low-molecular-weight complexes. The profiles display one dispersion between 1 and 10 MHz as has been previously described for other complexes except [Mn(H2O)6]^2+.[49],[50] The hydration number of MnL2 and MnL3 was assumed in both cases to be q = 1 for a total coordination number of CN = 7, based on the X-ray crystal structure. In aqueous solution, the chloride or the acetonitrile that coordinates to Mn(II) in the solid state will be replaced by one water molecule to complete the coordination sphere of Mn(II). As it was described by Gale et al.,[51] the ^17O T2 values can also give an estimate of hydration number, provided the 1/T2r vs temperature curve has a maximum. This approach is not applicable for MnL2 and MnL3 since both systems are in the slow exchange regime in the entire temperature range studied. The lack of a fast exchange regime prevents the fit of the scalar coupling constant, A0/ℏ, as well which was therefore fixed to 38.6 MHz.[28]

| water solubility [1] | ErH (activation energy for the rotational motion) [2] [kJ mol^–1] | ΔH^‡ (activation enthalpy for the water exchange) [2] [kJ mol^–1] | ΔS^‡ (activation entropy for the water exchange) [2] | Δ^2 (trace of the square of the transient ZFS tensor) [2] | τrH^298 (rotational correlation time) [2] [ps] | τv^298 (correlation time for modulation of ZFS) [2] [ps] | Compound | kex^298 (water exchange rate constant) [2] | kex^298 (water exchange rate) [2] |
| --- | --- | --- | --- | --- | --- | --- | --- | --- | --- |
| water-soluble | 15.0 ± 0.5 | 28.7 ± 1.36 | –21 ± 5 J mol^–1K^–1 | 164 ± 10 10^18 s^–2 | 35 ± 4 | 8 ± 1 | O.[Mn+2].c1ccc(CN2CCOCCOCCNCc3cccc(n3)C2)nc1 [MnL2] | 0.46 × 10^7 s^–1 | 0.46 ± 0.02 10^7 s^–1 |
| water-soluble | 15.0 ± 0.5 | 28.5 ± 2.5 | –27 ± 7 J mol^–1K^–1 | 100 ± 10 10^18 s^–2 | 45 ± 2 | 13 ± 3 | O.[Mn+2].c1cc2nc(c1)CN(Cc1nc3ccccc3[nH]1)CCOCCOCCNC2 [MnL3] | 0.23 × 10^7 s^–1 | 0.23 ± 0.02 10^7 s^–1 |
